Laboratory results taken from patent US20100222548A1, “METHOD FOR PRODUCING CONDENSATION PRODUCTS FROM N-SUBSTITUTED GLYCINE DERIVATIVES(PEPTOIDS) BY SEQUENTIAL UGI-MULTICOMPONENT REACTIONS” (priority 2006, published 2010).
pIC50: −log10 of the molar value. Where a SMILES comes first, the peptide text is derived from it. [ ]: non-standard residue; d: D form. Gly(Nα-4-Cl-benzyl) = O=C(O)CNCc1ccc(Cl)cc1; Gly(N-(CH2)3OMe) = COCCCNCC(=O)O; N(iPr)Gly = CC(C)NCC(=O)O

System: Vibrio fischeri

## COCCCN(CC(=O)NCC(=O)O)C(=O)CNC(=O)CN(C(=O)CNC(=O)CN(Cc1ccc(Cl)cc1)C(=O)CN)C(C)C (H-G[Gly(Nα-4-Cl-benzyl)]G[N(iPr)Gly]G[Gly(N-(CH2)3OMe)]G-OH)
  pIC50: ~5.00
